Experimental data published in patent US20240067632A1, “WEE1 Degrading Compounds and Uses Thereof” (Bristol-Myers Squibb Company, priority 2022, published 2024).
Like-named read-outs stand apart in the source and are kept apart here.

How the values were obtained:
WEE1 = biological target: T1, WEE1 (Homo sapiens, UniProt P30291+Q96SW2); assay: WEE1-ePL degradation assay (LentiX-WEE1-ePL-GSPT1-ND cells, InCELL Hunter luminescence, 4 h); format: cell-based; conditions: 293T-LentiX WEE1-ePL cells; for DC50: read-out: 293T-LentiX WEE1-ePL Degradation 4 hr (EC50)
T1 construct: C-terminal ePL-tagged (DiscoverX, Fremont, CA) full-length WEE1 expression construct; expressed in transfected cells; host or cells: LentiX-HEK293T (Invitrogen), lentiviral transduction; co-expressing GSPT1-GN (G576N, lacking the first 158 amino acids)
Protocol: To generate LentiX-WEE1-ePL-GSPT1-ND cells for the WEE1 degradation assay, LentiX-HEK293T (Invitrogen) were transduced by lentivirus with a C-terminal ePL-tagged (DiscoverX, Fremont, CA) full-length WEE1 expression construct. […] Cells were selected and maintained in complete DMEM media (DMEM, 10% Heat Inactivated FBS, 400 μg/mL Geneticin, and 1 μg/mL puromycin at 37 C and 5% CO2). Cells were passaged every 3-4 days by reseeding 1×10^6 cells in a T150 flask.
Cells were dispensed into 384-well white plates (Corning #3570, NY) that were pre-spotted with compounds using an acoustic dispenser (Echo acoustic transfer system, Beckman Coulter Life Sciences, Carlsbad, CA) as a 10-point dose-response curve with a 3-fold dilution starting at either 1 uM or 10 uM and including a DMSO control. Twenty-five microliters of media containing 2500 cells for LentiX-oeWEE1-ePL was dispensed per well. Assay plates were incubated at 37° C. with 5% CO2 for four hours (WEE1) After incubation, 25 μL of the InCELL Hunter™ Detection Reagent Working Solution (DiscoverX, Fremont, CA) was added to each well and incubated at room temperature for 30 minutes protected from light. After 30 minutes, luminescence was read on a PHERAstar luminometer (Cary, NC).
To determine the half-maximal effective concentration (EC50) values for WEE1-ePL degradation, a four parameter logistic model was used: (Sigmoidal Dose-Response Model) (FIT=(A+((B−A)/1+((C/x)^D)))) where C is the inflection point (EC50), D is the Hill slope, and A and B are the low and high limits of the fit respectively). The lower limit of the fit (value A) is referred to as Ymin. […] The maximum limit constraint, Ymax, is similarly derived using DMSO control. The curves were processed and evaluated using Activity Base (IDBS, Alameda, CA).

MKN45 cells = assay: MKN45 cell proliferation assay (Cell-Titer-Glo, 120 h); format: cell-based; conditions: for EC50: Homo sapiens, MKN-45, 120 h, Cell-Titer-Glo, read-out: MKN45 Cell Prolif. 120 hr (EC50); for MKN45 Cell Prolif. 120 hr (Ymin-Obs): minimal percent of DMSO control observed in the concentrations tested
Protocol: MKN45 cells were obtained from Celgene internal cell banks and cultured in RPMI complete media (RPMI-1640, 1× Penicillin/Streptomycin, 1× glutamine, 1× Sodium Pyruvate, Non-essential Amino Acids, 10% Fetal Bovine serum, all component from Thermo-Fisher). Compounds were dispensed into 384-well plates using an HP DE300 compound printer in triplicate with 8 compounds on each plate. For each compound, a 10-point dose response was printed at half-log dilutions starting at either 1 uM or 10 uM. The DMSO concentration was kept constant for a final assay concentration of 0.1% per well assuming 50 ul final media volume. Compound plates were sealed and frozen at −20 C until use.
For each assay batch, compound plates were thawed and allowed to reach room temperature, and cells were seeded at 400 cells per well in 50 ul complete RPMI media. After 120 hours of incubation at 37 C and 5% CO2, cells were lysed by addition of 25 μL of Cell-Titer-Glo Reagent (Promega Corporation, Madison, WI), as per manufacturer's instructions, protected from light, shaken for 45 minutes, and total luminescence read by a Perkin Elmer Envision plate reader. Total luminescence signal is linearly correlated with cell number remaining in the well.
Luminescence data was processed per plate by subtracting reagent-only “blank” well luminescence from all measured values and calculating a percent of DMSO control value for each treatment well. Then, to determine the half-maximal effective concentration (EC50) values for cell growth inhibition, a four parameter logistic model was fit to the data for each DMSO-normalized compound: Sigmoidal Dose-Response Model: (FIT=(A+((B−A)/1+((C/x)^D)))) where C is the inflection point (EC50), D is the Hill slope, and A and B are the low and high limits of the fit respectively. The lower limit of the fit (value A) is referred to as Ymin-calculated. The minimal percent of DMSO control that is observed in the concentrations tested for each compound is labeled as “Ymin-obs”, and was recorded and reported in the tables. Sigmoidal fit curves were processed and evaluated using Activity Base (IDBS, Alameda, CA).

[1] = lower limit of the fit (0 = luciferase inhibitor, Ymax = DMSO control)
[2] = lower limit of the fit (Ymin=0 luciferase inhibitor, Ymax DMSO control)

SMILES	293T-LentiX WEE1-ePL Degradation 4 hr (Ymin) (WEE1; [1])	DC50 (WEE1)	EC50 (MKN45 cells; growth inhibition)	EC50 (MKN45 cells)	293T-LentiX WEE1-ePL Degradation 4 hr (Ymin) (WEE1; [2])	MKN45 Cell Prolif. 120 hr (Ymin-Obs) (MKN45 cells)
CC(c1cnc2ccccc2c1)N1CC[C@@H](Oc2ccc3c(c2)CN(C2CCC(=O)NC2=O)C3=O)C1 (stereo in doubt) [rel-3-(1-oxo-5-{[(3R)-1-[1-(quinolin-3-yl)ethyl]pyrrolidin-3-yl]oxy}-2,3-dihydro-1H-isoindol-2-yl)piperidine-2,6-dione]	50.89	0.0834 µM	> 10 µM			76.71
O=C1CCC(N2C(=O)c3ccc(O[C@H]4CCN(Cc5cnc6ccccc6c5)C4)cc3C2=O)C(=O)N1 (stereo partly drawn) [2-(2,6-dioxopiperidin-3-yl)-5-{[(3S)-1-[(quinolin-3-yl)methyl]pyrrolidin-3-yl]oxy}-2,3-dihydro-1H-isoindole-1,3-dione]	30.205	0.0329 µM	0.621 µM			15.39
O=C1CCC(N2C(=O)c3ccc(O[C@H]4CCN(Cc5ccnc6ccccc56)C4)cc3C2=O)C(=O)N1 (stereo partly drawn) [2-(2,6-dioxopiperidin-3-yl)-5-{[(3S)-1-[(quinolin-4-yl)methyl]pyrrolidin-3-yl]oxy}-2,3-dihydro-1H-isoindole-1,3-dione]	38.05	1.23 µM	2.51 µM			48.18
O=C1CCC(N2C(=O)c3ccc(O[C@H]4CCN(Cc5cccc6ncccc56)C4)cc3C2=O)C(=O)N1 (stereo partly drawn) [2-(2,6-dioxopiperidin-3-yl)-5-{[(3S)-1-[(quinolin-5-yl)methyl]pyrrolidin-3-yl]oxy}-2,3-dihydro-1H-isoindole-1,3-dione]	30.52	0.0792 µM	2.23 µM			44.93
COC[C@@H]1CCC[C@H]1c1ccc2cc(CN3CC[C@H](Oc4ccc5c(c4)CN(C4CCC(=O)NC4=O)C5=O)C3)ccc2n1 (stereo partly drawn) [3-(5-{[(3S)-1-({2-[(1R,2R)-2-(methoxymethyl)cyclopentyl]quinolin-6-yl}methyl)pyrrolidin-3-yl]oxy}-1-oxo-2,3-dihydro-1H-isoindol-2-yl)piperidine-2,6-dione]				0.0166 µM		12.33
COC[C@H]1CCC[C@H]1c1ccc2cc(CN3CC[C@H](Oc4ccc5c(c4)CN(C4CCC(=O)NC4=O)C5=O)C3)ccc2n1 (stereo partly drawn) [3-(5-{[(3S)-1-({2-[(1R,2S)-2-(methoxymethyl)cyclopentyl]quinolin-6-yl}methyl)pyrrolidin-3-yl]oxy}-1-oxo-2,3-dihydro-1H-isoindol-2-yl)piperidine-2,6-dione]				0.0123 µM		15.33
O=C1CC[C@H](N2Cc3cc(O[C@@H]4CN(Cc5ccc6nc(N7CCOCC7)ncc6c5)CC4(F)F)ccc3C2=O)C(=O)N1 [(3S)-3-(5-{[(3R)-4,4-difluoro-1-{[2-(morpholin-4-yl)quinazolin-6-yl]methyl}pyrrolidin-3-yl]oxy}-1-oxo-2,3-dihydro-1H-isoindol-2-yl)piperidine-2,6-dione]				0.0178 µM		10.03
COC[C@@H]1CN(Cc2ccc3nc(C4CCOCC4)ccc3c2)C[C@H]1Oc1ccc2c(c1)CN([C@H]1CCC(=O)NC1=O)C2=O [(3S)-3-(5-{[(3S,4S)-4-(methoxymethyl)-1-{[2-(oxan-4-yl)quinolin-6-yl]methyl}pyrrolidin-3-yl]oxy}-1-oxo-2,3-dihydro-1H-isoindol-2-yl)piperidine-2,6-dione]				0.000728 µM		9.194
C[C@H]1c2cc(O[C@H]3CCN(Cc4ccc5nc(N6CCOCC6)ncc5c4)C3)ccc2C(=O)N1[C@H]1CCC(=O)NC1=O [(3S)-3-[(3S)-3-methyl-5-{[(3S)-1-{[2-(morpholin-4-yl)quinazolin-6-yl]methyl}pyrrolidin-3-yl]oxy}-1-oxo-2,3-dihydro-1H-isoindol-2-yl]piperidine-2,6-dione]		1.18 µM			37.95	

Continued, in another order:

293T-LentiX WEE1-ePL Degradation 4 hr (Ymin) (WEE1; [1])	DC50 (WEE1)	EC50 (MKN45 cells; growth inhibition)	EC50 (MKN45 cells)	293T-LentiX WEE1-ePL Degradation 4 hr (Ymin) (WEE1; [2])	SMILES	MKN45 Cell Prolif. 120 hr (Ymin-Obs) (MKN45 cells)
38	0.00319 µM	0.00383 µM			O=C1CCC(N2Cc3cc(O[C@H]4CCN(Cc5ccc6nc(N7C[C@@H]8C9CCC(O9)[C@@H]8C7)ccc6c5)C4)ccc3C2=O)C(=O)N1 (stereo partly shown)	10.93
35	0.00925 µM	0.0105 µM			O=C1CCC(N2Cc3cc(O[C@H]4CCN(Cc5ccc6nc(N7C[C@@H]8C9CCC(O9)[C@@H]8C7)ncc6c5)C4)ccc3C2=O)C(=O)N1 (stereo partly shown)	12.82
33	0.018 µM	0.013 µM			O=C1CC[C@H](N2Cc3cc(O[C@H]4CCN(Cc5ccc6nc([C@@H]7CCOC7)ncc6c5)C4)ccc3C2=O)C(=O)N1	9.409
34	0.0218 µM	0.0185 µM			O=C1CCC(N2Cc3cc(O[C@@H]4CCN(Cc5ccc6nc([C@@H]7CCOC7)ncc6c5)C4)ccc3C2=O)C(=O)N1 (relative stereo) [rel-3-(1-oxo-5-{[(3R)-1-({2-[(3S)-oxolan-3-yl]quinazolin-6-yl}methyl)pyrrolidin-3-yl]oxy}-2,3-dihydro-1H-isoindol-2-yl)piperidine-2,6-dione]	7.06
26.82	0.00657 µM	0.057 µM			O=C1CCC(N2Cc3cc(O[C@@H]4CCN(Cc5cnc6ccccc6c5)C4)ccc3C2=O)C(=O)N1 (stereo in doubt) [rel-3-(1-oxo-5-{[(3R)-1-[(quinolin-3-yl)methyl]pyrrolidin-3-yl]oxy}-2,3-dihydro-1H-isoindol-2-yl)piperidine-2,6-dione]	11.39
			0.0171 µM		O=C1CC[C@H](N2Cc3cc(O[C@H]4CCN(Cc5ccc6nc(C7CCOCC7)ncc6c5F)C4)ccc3C2=O)C(=O)N1 [(3S)-3-(5-{[(3S)-1-{[5-fluoro-2-(oxan-4-yl)quinazolin-6-yl]methyl}pyrrolidin-3-yl]oxy}-1-oxo-2,3-dihydro-1H-isoindol-2-yl)piperidine-2,6-dione]	9.88
	0.00582 µM			29.77	O=C1CC[C@H](N2Cc3cc(O[C@H]4CCN(Cc5cc6ccc(C7CCOCC7)nc6cc5F)C4)ccc3C2=O)C(=O)N1 [(3S)-3-(5-{[(3S)-1-{[7-fluoro-2-(oxan-4-yl)quinolin-6-yl]methyl}pyrrolidin-3-yl]oxy}-1-oxo-2,3-dihydro-1H-isoindol-2-yl)piperidine-2,6-dione]	
			0.00719 µM		O=C1CC[C@H](N2Cc3cc(O[C@H]4CCN(Cc5cc(F)c6nc(N7CCOCC7)ccc6c5)C4)ccc3C2=O)C(=O)N1 [(3S)-3-(5-{[(3S)-1-{[8-fluoro-2-(morpholin-4-yl)quinolin-6-yl]methyl}pyrrolidin-3-yl]oxy}-1-oxo-2,3-dihydro-1H-isoindol-2-yl)piperidine-2,6-dione]	12.7
